Measurements from PubChem BioAssay (NCI).
“And” between values parts separate entries of the source, which are not always exact repeats. Equal values may be shown once.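 Method: 48-hour compound exposure of cells in 96-well plates, five concentrations, linear interpolation of endpoints. Abbreviation: GI50, concentration required for 50% inhibition of growth. TGI: total growth inhibition.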

Key:
Assay in all cases: NCI tumour cell line growth inhibition, 48 h
HOP-18 NSCLC = tested on: HOP-18 NSCLC
KM20L2 colon = tested on: KM20L2 colon
LXFL 529 NSCLC = tested on: LXFL 529 NSCLC
M19-MEL melanoma = tested on: M19-MEL melanoma
RXF-631 renal = tested on: RXF-631 renal
SNB-78 CNS = tested on: SNB-78 CNS
DMS 273 small cell lung = tested on: DMS 273 small cell lung
DLD-1 colon = tested on: DLD-1 colon
MDA-N = tested on: MDA-N
P388/ADR leukemia = tested on: P388/ADR leukemia
SN12K1 renal = tested on: SN12K1 renal

Compound	TGI (HOP-18 NSCLC)	TGI (KM20L2 colon)	TGI (LXFL 529 NSCLC)	TGI (M19-MEL melanoma)	TGI (RXF-631 renal) [µM]	TGI (SNB-78 CNS)	TGI (DMS 273 small cell lung)	TGI (DLD-1 colon)	TGI (MDA-N) [µM]	also measured
Cc1nc(C(N)=O)c(N)n1CCN1CCN(C(=O)CCCCCCCCCCNC2N=CNc3nc[nH]c32)CC1 (stereo not drawn)	> 100 µM	> 100 µM	71.6 µM	> 100 µM	> 100	> 100 µM				
Cc1cc2c(C)nn(Cc3ccccc3)c2c(C(=O)O)c1C	> 100 µM	> 100 µM	> 100 µM	> 100 µM	> 100	> 100 µM	> 100 µM			
C[N+](C)(C)CCC(=O)CC[N+](C)(C)C	31.8 µM	55.4 µM	30.4 µM	54.5 µM		50.8 µM	63.6 µM	39.2 µM		
O=C1C[C@H]2CCCN2[C@@H](c2ccccc2)C1	> 100 µM	> 100 µM	> 100 µM	> 100 µM	> 100	> 100 µM	> 100 µM			
CNC(=S)Nc1ccc(OC)c2ccccc12									> 10	
O=c1cc(-c2cccs2)[nH]c2cc3c(cc12)OCO3	> 100 µM	41.3 µM	> 100 µM	> 100 µM	> 100	> 100 µM	> 100 µM	> 100 µM		
CCc1cccc(C)c1NS(=O)(=O)c1ccccc1		> 100 µM	> 100 µM	> 100 µM	> 100	> 100 µM	> 100 µM	> 100 µM		
COC(=O)C1=C(O)C(C(=O)OC)C2CC(=O)CC1C2(C)C (stereo not drawn)									> 100	
Cn1c(=O)c(N=Nc2c(=O)n(C)c(=O)n3c2[nH]c2ccccc23)c2[nH]c3ccccc3n2c1=O	> 100 µM	> 100 µM	> 100 µM	> 100 µM	> 100	> 100 µM	> 100 µM	> 100 µM		
CC(=O)c1c(O)c(C)c(O)c(Cc2c(O)c3c(c(C(=O)/C=C/c4ccccc4)c2O)OC(C)(C)C=C3)c1O									> 100	
N#CC(N)=Nc1ccccc1	> 100 µM	> 100 µM	> 100 µM	> 100 µM	> 100		> 100 µM	> 100 µM		
Nc1ncnc2c1ncn2C1OC(CSCC(F)(F)F)C(O)C1O (stereo not drawn)	> 100 µM	> 100 µM	> 100 µM	> 100 µM		> 100 µM	> 100 µM	> 100 µM		
O=C1C2C3C=C4c5ccccc5N(c5ccccc5)C4(C2C(=O)N1c1ccccc1)C1C(=O)N(c2ccccc2)C(=O)C31 (stereo not drawn)	> 100 µM	> 100 µM	> 100 µM	> 100 µM	> 100	> 100 µM		> 100 µM		
O=c1ncccn1[C@@H]1O[C@H](CO)[C@H](O)C1O (stereo partly drawn)	> 100 µM	> 100 µM	> 100 µM	> 100 µM		> 100 µM	> 100 µM	> 100 µM		
O=C(Nc1cccc(Cl)c1)Nn1cnnc1									> 100	
CC1CC(C)CC(C)C(O)/C(C#N)=C/C=C/CC(C2CCCC2C(=O)O)OC(=O)CC(O)C(C)C1 (stereo not drawn)	0.0612 µM	1.43 µM	0.0397 µM	0.0532 µM	0.254	0.13 µM	0.11 µM	0.0819 µM	0.0646	GI50 (MDA-N): 0.0188 µM; TGI (P388/ADR leukemia): < 0.0143 µM; TGI (SN12K1 renal): < 0.0223 µM
COC(=O)c1sc(C(=O)OC)c2c1CS(=O)C2	> 100 µM	> 100 µM	> 100 µM	> 100 µM	> 100	> 100 µM	> 100 µM	> 100 µM		
CN1CCN(C(=S)N(C)C(=O)c2ccco2)CC1									> 100	
COc1ccc2nccc(C3=CCC4CCN(C(=O)c5ccccc5)C3C4)c2c1 (stereo not drawn)			> 100 µM	> 100 µM		> 100 µM	> 100 µM	> 100 µM		
COC(=O)C1=CO[C@@H](OC2CC(CO)C(O)C(O)C2O)[C@@H]2[C@@H](C)[C@@H](OC(=O)/C=C/c3ccccc3)[C@@H](O)[C@H]12 (stereo partly drawn) (tested in a mixture with another compound)	> 100 µM	> 100 µM	> 100 µM	> 100 µM				> 100 µM		
Cn1c(=O)nc2n(-c3ccc(O)cc3)c3ccccc3nc-2c1=O	> 100 µM	> 100 µM	> 100 µM	81.1 µM	> 100	> 100 µM	> 100 µM	> 100 µM		
c1ccc(NN(Cc2cnccn2)c2ccccc2)cc1									> 100	
O=C1C=CC(=O)c2c1ccc1c3ccccc3n(Cc3ccc([N+](=O)[O-])cc3)c21									> 100	

Compound	TGI (HOP-18 NSCLC)	TGI (KM20L2 colon)	TGI (LXFL 529 NSCLC)	TGI (M19-MEL melanoma)	TGI (RXF-631 renal) [µM]	TGI (SNB-78 CNS)	TGI (DMS 273 small cell lung)	TGI (DLD-1 colon)	TGI (MDA-N) [µM]	also measured
CC1=C(C(=O)Nc2ccccc2C)C(c2ccc(Cl)cc2)C(C(=O)Nc2ccccc2C)=C(C)N1	> 100 µM		> 100 µM	> 100 µM	> 100	> 100 µM		> 100 µM		
C=CCc1c(Cl)nc(Cl)nc1Cl									0.116	
O=C(NCCCOC(=O)CCCCCCCCC(=O)OCCCNC(=O)NC(=O)c1c[nH]c(=O)[nH]c1=O)NC(=O)c1c[nH]c(=O)[nH]c1=O	> 100 µM	> 100 µM	> 100 µM	> 100 µM	> 100	> 100 µM	> 100 µM	> 100 µM		
CC(=O)Nc1ccc(-c2cc(C(=O)O)c3cc4ccccc4cc3n2)cc1									> 100	
CN1N=CSC12C(=O)N(c1ccccc1)C(=O)N2c1ccccc1 (stereo not drawn)	9.62 µM	> 100 µM	> 100 µM	> 100 µM	> 100	> 100 µM	> 100 µM	> 100 µM		
N=C1C(O)C2(I)c3ccccc3N3C(=N)C(O)C4c5ccccc5N1C4C32 (stereo not drawn)									> 100	
C/C=C/C(C#N)O[Si](C)(C)C (stereo not drawn)	> 100 µM	> 100 µM	> 100 µM	> 100 µM		> 100 µM	> 100 µM	> 100 µM		
COc1cc(Cl)cc(=O)c(O)c1OC	> 100 µM	> 100 µM	> 100 µM	> 100 µM		> 100 µM	> 100 µM	> 100 µM		
CCOC(=O)NC(=O)c1cn(CCN2CCN(C(=O)NCCCCCCNC(=O)N3CCN(CCn4cc(C(=O)NC(=O)OCC)c(=O)[nH]c4=O)CC3)CC2)c(=O)[nH]c1=O	> 100 µM	> 100 µM	> 100 µM	> 100 µM	> 100	> 100 µM	> 100 µM			
Cn1ccnc1CCc1c(Cl)cccc1Cl	> 100 µM	> 100 µM	> 100 µM	> 100 µM		> 100 µM	> 100 µM	> 100 µM		
CN(C)c1cc2ccccc2oc1=O									> 100	
Cc1c(OC(C)C(=O)O)ccc2c(-c3ccccc3)cc(=O)oc12 (stereo not drawn)	> 100 µM	> 100 µM	> 100 µM	> 100 µM	> 100	> 100 µM		> 100 µM		
COC1=NCc2ccccc2-c2ccccc21	> 100 µM					> 100 µM	> 100 µM	> 100 µM		
O=C1Nc2ccccc2C1(O)C/C(=N/O)c1ccc2ccccc2c1 (stereo not drawn)	> 100 µM	> 100 µM	> 100 µM	> 100 µM	> 100	> 100 µM		> 100 µM		
Cc1ccc(S(=O)(=O)SC/C=C\CSS(=O)(=O)c2ccc(C)cc2)cc1	> 100 µM and 82.5 µM	> 88.5 µM and 49.1 µM	> 67.8 µM and 33.9 µM	> 100 µM and 95.1 µM		> 100 µM and 89.5 µM	> 43.7 µM and 35.3 µM	> 100 µM and 47.7 µM	> 31.6	GI50 (DMS 273 small cell lung): 3.92 µM and 18.3 µM; GI50 (HOP-18 NSCLC): > 100 µM and 35.6 µM; GI50 (LXFL 529 NSCLC): 8.61 µM and 17.5 µM
CCc1c(C#N)c(=O)[nH]c(=O)n1CCN1CCN(C(=O)NCCCCCCNC(=O)N2CCN(CCn3c(CC)c(C#N)c(=O)[nH]c3=O)CC2)CC1	> 100 µM	> 100 µM	> 100 µM	> 100 µM	> 100	> 100 µM	> 100 µM	> 100 µM		
C[C@@H](NC(C#N)c1ccco1)c1ccccc1 (stereo partly drawn)									> 100	
CCSCCCSCCSCC									> 100	
O=[N+]([O-])c1ccccc1N=Nc1c(O)[nH]c2cccc(C(F)(F)F)c12									33.3	
IC[P+]1(c2ccccc2)CCCC1	> 100 µM	> 100 µM	> 100 µM	81 µM		> 100 µM	> 100 µM	> 100 µM		
O=C(N/N=C/c1ccccc1O)N/N=C/c1ccccc1O	> 100 µM	> 100 µM	> 100 µM	> 100 µM	> 100	> 100 µM	> 100 µM	> 100 µM		
CC[O-].CC[O-].O=C([CH-]C(=O)c1ccccc1)CCCCCCCCC(=O)[CH-]C(=O)c1ccccc1.[Ti+4]		> 100 µM	> 100 µM	> 100 µM	> 100	> 100 µM	> 100 µM	> 100 µM		GI50 (DLD-1 colon): > 100 µM; GI50 (DMS 273 small cell lung): > 100 µM; GI50 (KM20L2 colon): > 100 µM; GI50 (LXFL 529 NSCLC): > 100 µM; GI50 (M19-MEL melanoma): > 100 µM; GI50 (RXF-631 renal): > 100 µM; GI50 (SNB-78 CNS): > 100 µM
O=C1CC(CC(=O)C2CCCCC2=O)C(=O)N1 (stereo not drawn)	> 100 µM	> 100 µM	> 100 µM	> 100 µM		> 100 µM	> 100 µM	> 100 µM		
